# Where “and” joins values, the source holds several entries; their conditions need not be identical. Identical values can stand only once. Like-named read-outs stand apart in the source and are kept apart here.
# Tests used:
# [1] = tested on: C. elegans DA1316; test: C. elegans 3-day liquid viability assay, DA1316 avr-14; avr-15; […]; type: in vivo, Caenorhabditis elegans; details: DA1316, nemacol-1 0
# [2] = tested on: C. elegans; test: C. elegans 3-day liquid viability assay, Nemacol-1 x Ivermectin matrix, wild type; details: for development average norm L4/As / viability Avg / average progress to L4 (development) / average viability (relative to control): N2; for average progress to L4 (development) / average viability (relative to control): Nemacol-1-1 0; for nemacol-1 x ivermectin matrix dose-response raw data: wt (N2) + 0 uM nemacol, 3 replicate columns
# [3] = tested on: Haemonchus contortus; test: Haemonchus contortus L3 Migration Trap Assay (motility, 24 h exposure); details: hc weybridge, 24 h; for raw: raw motility readout
# [4] = tested on: C. elegans unc-17(e245); details: for development average norm L4/As / viability Avg: CB245 unc-17(e245); for nemacol-1 x ivermectin matrix dose-response raw data: unc-17(e245) + 0 uM nemacol, 3 replicate columns
# [5] = ivermectin 0.00046875 uM (Fig. 5AC sheet)
# [6] = ivermectin 0.0009375 uM (Fig. 5AC sheet)
# [7] = ivermectin 0.001875 uM (Fig. 5AC sheet)
# [8] = ivermectin 0.00375 uM (Fig. 5AC sheet)
# [9] = ivermectin 0.03 uM (Fig. 5AC sheet)
# [10] = ivermectin 0.06 uM (Fig. 5AC sheet)
# [11] = ivermectin 0.001875 uM (row head 1.875)
# [12] = ivermectin 0.00375 uM (row head 3.75)
# [13] = ivermectin 0.06 uM (row head 60)
# [14] = ivermectin 0.0195312 µM + Nemacol_53 26.4 µM
# [15] = ivermectin 0.0195312 µM + Nemacol_53 16.8 (unit not given)
# [16] = ivermectin 0.078125 µM + Nemacol_53 26.4 µM
# [17] = ivermectin 0.078125 µM + Nemacol_53 16.8 (unit not given)
# [18] = ivermectin 5 µM + Nemacol_53 16.8 (unit not given)
smiles,measurement,setting,value
CC[C@H](C)[C@H]1O[C@]2(CC[C@@H]1C)C[C@@H]1C[C@@H](C/C=C(\C)[C@@H](O[C@H]3C[C@H](OC)[C@@H](O[C@H]4C[C@H](OC)[C@@H](O)[C@H](C)O4)[C@H](C)O3)[C@@H](C)/C=C/C=C3\CO[C@@H]4[C@H](O)C(C)=C[C@@H](C(=O)O1)[C@]34O)O2 [ivermectin],total animals normalized to corresponding controls,[1]; ivermectin 0.0009375 uM,111.56
same,total animals normalized to corresponding controls,[1]; ivermectin 0.001875 uM,102.36
same,total animals normalized to corresponding controls,[1]; ivermectin 0.00375 uM,113.75
same,total animals normalized to corresponding controls,[1]; ivermectin 0.03 uM,108.02
same,total animals normalized to corresponding controls,[1]; ivermectin 0.06 uM,93.85
same,development average norm L4/As,[2]; [5],99.0
same,viability Avg,[2]; [5],0.99
same,development average norm L4/As,[2]; [6],105.0
same,viability Avg,[2]; [6],1.05
same,average progress to L4 (development),[2]; ivermectin 0.0009375 uM,107.265
same,average viability (relative to control),[2]; ivermectin 0.0009375 uM,1.077
same,development average norm L4/As,[2]; [7],102.7
same,viability Avg,[2]; [7],1.03
same,average progress to L4 (development),[2]; ivermectin 0.001875 uM,88.2297
same,average viability (relative to control),[2]; ivermectin 0.001875 uM,0.8852
same,development average norm L4/As,[2]; [8],101.8
same,viability Avg,[2]; [8],1.03
same,average progress to L4 (development),[2]; ivermectin 0.00375 uM,85.4056
same,average viability (relative to control),[2]; ivermectin 0.00375 uM,0.8507
same,development average norm L4/As,[2]; [9],33.1
same,viability Avg,[2]; [9],0.89
same,average progress to L4 (development),[2]; ivermectin 0.03 uM,25.8319
same,average viability (relative to control),[2]; ivermectin 0.03 uM,0.6373
same,development average norm L4/As,[2]; [10],0.0
same,viability Avg,[2]; [10],0.11
same,average progress to L4 (development),[2]; ivermectin 0.06 uM,0
same,average viability (relative to control),[2]; ivermectin 0.06 uM,0.09164
same,nemacol-1 x ivermectin matrix dose-response raw data,[2]; [11],131.9 and 90.0 and 88.0
same,nemacol-1 x ivermectin matrix dose-response raw data,[2]; [12],106.4 and 120.0 and 114.0
same,nemacol-1 x ivermectin matrix dose-response raw data,[2]; ivermectin 0.03 uM (row head 30),48.9 and 56.7 and 24.0
same,nemacol-1 x ivermectin matrix dose-response raw data,[2]; [13],12.8 and 13.3 and 2.0
same,efficacy,[3]; [14],51.6335 and 46.2111 and 62.2283
same,efficacy,[3]; [15],45.9092 and 67.7834 and 50.4898
same,efficacy,[3]; [16],64.6293 and 71.8721 and 59.357
same,efficacy,[3]; [17],51.0321 and 52.0838 and 33.3542
same,efficacy,[3]; ivermectin 0.078125 µM alone,36.1803 and 63.8058 and 55.3013
same,efficacy,[3]; ivermectin 0.3125 µM + Nemacol_53 26.4 µM,79.9766 and 60.2317 and 86.7864
same,efficacy,[3]; ivermectin 0.3125 µM + Nemacol_53 16.8 (unit not given),66.3699 and 69.3635 and 88.9679
same,efficacy,[3]; ivermectin 0.3125 µM alone,59.3102 and 77.8029 and 70.3944
same,efficacy,[3]; ivermectin 1.25 µM + Nemacol_53 26.4 µM,80.8981 and 87.2376 and 93.0175
same,efficacy,[3]; ivermectin 1.25 µM + Nemacol_53 16.8 (unit not given),94.1091 and 79.6798 and 82.4964
same,efficacy,[3]; ivermectin 1.25 µM alone,87.3643 and 74.9707 and 86.5339
same,efficacy,[3]; ivermectin 5 µM + Nemacol_53 26.4 µM,82.4313 and 91.8131 and 94.4761
same,efficacy,[3]; [18],92.0083 and 91.7168 and 89.2099
same,efficacy,[3]; ivermectin 5 µM alone,83.6288 and 93.388 and 88.8663
same,efficacy,[3]; ivermectin 20 µM + Nemacol_53 26.4 µM,86.7838 and 88.1791 and 95.9929
same,efficacy,[3]; ivermectin 20 µM + Nemacol_53 16.8 (unit not given),95.5746 and 77.0116 and 89.754
same,efficacy,[3]; ivermectin 20 µM alone,95.1061 and 89.4651 and 83.7772
same,raw,[3]; ivermectin 0.0012207 µM + Nemacol_53 26.4 µM,51596.5 and 71143.5 and 66277.5
same,raw,[3]; ivermectin 0.0012207 µM + Nemacol_53 16.8 (unit not given),67834.5 and 50419 and 52275.5
same,raw,[3]; ivermectin 0.0012207 µM alone,49240 and 71073.5 and 61317
same,raw,[3]; ivermectin 0.00488281 µM + Nemacol_53 26.4 µM,28751.5 and 44196 and 37912.5
same,raw,[3]; ivermectin 0.00488281 µM alone,43303 and 44672.5 and 57159.5
same,raw,[3]; [14],27870 and 30994.5 and 21765
same,raw,[3]; [15],31168.5 and 18564 and 28529
same,raw,[3]; ivermectin 0.0195312 µM alone,32641 and 25525.5 and 49250.5
same,raw,[3]; [16],20381.5 and 16208 and 23419.5
same,raw,[3]; [17],28216.5 and 27610.5 and 38403
same,raw,[3]; ivermectin 0.078125 µM alone,36774.5 and 20856 and 25756.5
same,raw,[3]; ivermectin 0.3125 µM alone,23446.5 and 12790.5 and 17059.5
same,raw,[3]; ivermectin 1.25 µM alone,7281 and 14422.5 and 7759.5
same,raw,[3]; [18],4605 and 4773 and 6217.5
same,development average norm L4/As,[4]; ivermectin 0.00046875 uM,91.4
same,viability Avg,[4]; ivermectin 0.00046875 uM,0.92
same,development average norm L4/As,[4]; ivermectin 0.0009375 uM,102.0
same,viability Avg,[4]; ivermectin 0.0009375 uM,1.02
same,development average norm L4/As,[4]; ivermectin 0.001875 uM,96.6
same,viability Avg,[4]; ivermectin 0.001875 uM,0.97
same,development average norm L4/As,[4]; ivermectin 0.00375 uM,94.6
same,viability Avg,[4]; ivermectin 0.00375 uM,0.95
same,development average norm L4/As,[4]; ivermectin 0.03 uM,1.1
same,viability Avg,[4]; ivermectin 0.03 uM,0.03
same,development average norm L4/As,[4]; ivermectin 0.06 uM,0.0
same,viability Avg,[4]; ivermectin 0.06 uM,0.00
same,nemacol-1 x ivermectin matrix dose-response raw data,[4]; [11],100.0 and 98.2 and 92.0
same,nemacol-1 x ivermectin matrix dose-response raw data,[4]; [12],94.6 and 102.2 and 87.1
same,nemacol-1 x ivermectin matrix dose-response raw data,[4]; [13],0.0
